1 molecule from patent US10485772B2, “Compositions for modulating cancer stem cells and uses therefor” (University of Canberra, priority 2014, dated 2019) can be followed below.

Assay [1] deals with MCF-7 cells (mammospheres). The experiment in a line: Mammosphere assay in MCF-IM model. To be noted: bisindolylmaleimide-I 1 μM for 1 hr prior to PMA for 6 days. The assay is classed as cell-based, human. On the procedure:
The following mammosphere culture media components were purchased from StemCell Technologies Inc., BC, Canada: Mammocult Basal medium (Human) (catalogue number-05621), Mammocult Proliferation Supplements (Human) (catalogue number-05622), heparin (catalogue number-07904) and hydrocortisone (catalogue number-[…]). Hydrocortisone powder was freshly dissolved into mammocult basal medium to get 10^−4M solution on the day of experiment. 50 mL of
Mammocult complete media was then prepared by addition of 45 mL Mammocult basal medium, 5 mL mammocult proliferation supplements, 100 μL of the 0.2% heparin stock, 500 μL of 10^−4M stock of hydrocortisone and 50 μL of the PNS. Mammocult complete media was either used on same day or stored for not more than 7 days at 4° C.
MCF-7 cells were grown in a 175 cm^2 cell culture flask and harvested using a cell scraper (Zellschaber, Switzerland) or FACS sorted as specified below. Importantly trypsin treatment was never used for harvesting cells as it interferes with the mammosphere assay. Harvested cells were then re-suspended in 1 mL mammocult complete media and centrifuged at 500×g for 3 minutes at 20° C. The cell pellet was then re-suspended in 1 mL mammocult complete media before counting the cells on the Vi-CELL counter. Cell dilutions were then prepared to stain 40,000 cells/2 mL and 2 mL of cells were seeded in the 6 well-ultra low adherent, flat bottom plates (Costar, Corning Inc, Corning, N.Y., USA). Cells were either stimulated or not treated according to the experimental protocol and incubated at 37° C., under 5% CO2 for 7 days in a Hepa-Filtered Infrared (IR) Incubator (Forma Scientific Inc., Materietta, Ohio). Mammospheres larger than 60 μm were counted per well on day 7 and pictures were taken with an Olympus microscope. All the mammosphere assays were performed in duplicate wells and the entire procedure was repeated at least twice.
Mammosphere culture media components were purchased from StemCell Technologies and mammosphere assays were performed as recommended by the manufacturer's guidelines. Briefly, 40,000 cells/2 ml cell dilutions were then prepared and 2 ml of cells were seeded in the 6 well-ultralow adherent, flat bottom plates (Costar). Mammospheres larger than 60 μm were counted per well on day 7 and pictures were taken.

Assay [2] concerns PKC-θ chromatin association at CSC inducible gene promoters (uPAR, CD44). The assay is described as follows: ChIP assay with anti-PKC-θ antibodies in MCF-IM model. The assay is classed as cell-based, human. On the procedure:
Between 1-5×10^6 Cells were harvested following various treatments according to the experimental requirement and re-suspended in 10 mL DMEM completer media at room temperature after counting then at Vi-CELL counter. Cells were then cross linked with freshly prepared 1% paraformaldehyde (PFA) (Analytical UNIVAR, Seattle, Wash.) for 10 minutes at room temperature with continuous but slow rotations on rotary wheel. Next, the reaction was quenched by the addition of 2M glycine solution (AnalaR, Merck, Darmstadt, Germany) to a get a final concentration of 125 mM and mixed further for 10 minutes at room temperature on the rotary wheel. Cells were then washed three times with 10 mL ice cold PBS and the cell pellet was either snap frozen on dry ice or used immediately afterwards. SDS Lysis Buffer (Upstate Biotechnology, Billerica, Mass.) was prepared by addition of 1× complete protease inhibitor solution (1 tablet dissolved in 1 mL DEPC water) (Roche Diagnostics, Mannheim, Germany) and cell pellet was then re-suspended in 250 μL of the in the SDS lysis buffer for 10 minutes at room temperature. Cells were sonicated (10 sec pulses for 2 minutes on 1 liter ice cold water mixed with ice, 70% maximum output) to shear the chromatin to obtain an average DNA fragment size of 250-500 bp using a Cole Palmer Ultrasonic processor (Cole Plamer, Vernon Hills, Ill.). […]

Consider `CN(C)CCCn1cc(C2=C(c3c[nH]c4ccccc34)C(=O)NC2=O)c2ccccc21` [bisindolylmaleimide-I], for which the mammosphere formation entry is “reduce mammosphere formation” in assay [1]; “inhibition of EMT and CSC formation” in assay [1] (listed as Broad spectrum PKC pathway inhibitor). Moreover, the “PKC-θ chromatin association across the uPAR promoter (ChIP)” value in assay [2] (MCF-IM model, bisindolylmaleimide-I 1 μM for 1 hr, then PMA for 60 hours) is given as “reduces its chromatin association across the uPAR promoter”. In assay [2] (as worded in Example 13), the “binding of PKC-θ on the CD44 gene promoter (ChIP)” value was “reduction of binding of PKC-θ on the CD44 gene promoter”.
